Measurements taken from US9278982B2, “Targeting human thymidylate kinase induces DNA repair toxicity in malignant tumor cells” (NATIONAL YANG-MING UNIVERSITY, priority 2010, dated 2016).

How the values were obtained:
MDA-MB231 cells = assay: Repair of doxorubicin-induced DNA lesions (γH2AX, Rad51, XRCC1 foci staining); assay type: cell-based, human
Method: FIG. 14. Effect of YMU1 on genomic toxicity and DNA repair. […] After overnight, cells were exposed to doxorubicin and recovered. […]
For γH2AX, Rad51 and XRCC1 staining, cells were fixed with 4% paraformaldehyde for 30 min at room temperature and were incubated with TBS (50 mM Tris-HCl, pH 7.4, 150 mM NaCl) plus 0.3% Triton X-100 for 5 min. The coverslips were blocked with MAXblock™ (Active Motif) for 1 h at 37° C., followed by staining with primary antibodies: anti-γH2AX monoclonal antibody (1:1000), anti-Rad51 polyclonal antibody (1:500) or anti-XRCC1 monoclonal antibody (1:500) overnight at 4° C. After extensive washing, cells were stained with secondary antibodies and Hoechst 33342 for 1 h at room temperature. After mounting, cells were analyzed and photographed with a Carl Zeiss fluorescence microscope equipped with AxioCam digital camera and Axio Vision Rel. 4.8 imaging software.

MDA-MB468 = assay: Doxorubicin sensitization, MTS viability assay; assay type: cell-based, human; details: doxorubicin sensitivity, YMU1 vs vehicle
Method: (§1) FIG. 16. In vitro and in vivo effect of YMU1 on doxorubicin sensitization. (A) A panel of cell lines were pre-treated with vehicle, YMU1 (compound 21), D6 (ethyl 4-(2-chloroacetyl)piperazine-1-carboxylate) or D7 (compound 28) for 3 days and were exposed to different concentration of doxorubicin for 4 h. […] The enhancement (fold) of doxorubicin sensitivity in each cell line was calculated. Data represent mean±s.d., n=3; each experiment was quadruplex. Inset indicates the IC50 value of doxorubicin in various cell lines. […] Following overnight culture, cells were refreshed with growth medium. After 14 days of culture, colonies were fixed, stained by crystal violet and counted. (C) HCT-116 p53^−/− cells were subcutaneously implanted in the right flank of Balb/c nude mice (each experimental group n=8). Arrow indicated the time of stopping drug treatment. The tumor volume was estimated as described in Methods of the Invention section. (D) After 2 weeks recovered from treatment, mice were sacrificed for tumor weight measurement. Data represent mean±s.e.m; **, P<0.01 by a two-tailed Student's t-test. (E) Ki 67 proliferation marker staining of tumor shown in left panel. Scale bar, 50 μm. (F) Model of doxorubicin sensitization by YMU1 in malignant cancer cells. Both R2/R1 and TMPK are recruited to the site of doxorubicin-induced double-strand breaks, where dATP, dGTP, dCTP, dTTP and dUTP are site-specific synthesized. Inhibition of TMPK decreases dTTP formation at DNA damage sites, causing futile DNA repair due to dUTP incorporation.
(§2) Next, various human cancer cell lines were treated with YMU1, D6 or D7 for 72 h to test the potential of TMPK inhibitor in doxorubicin sensitization. After exposure to different concentration of doxorubicin for 4 h, cells were refreshed for viability analysis after 2 days and the IC50 value for doxorubicin in each of the cell lines was determined (FIG. 16A and Table 2).
(§3) Cells plated into a 96-well plate (10^3 cells/well) were treated and cell viability was measured by MTS assay (Promega) (Cory et al., 1991). An annexin V-fluorescein isothiocyanate (FITC) apoptosis kit (Calbiochem) was used to detect apoptosis. The cell cycle analysis was performed by staining cells with propidium iodide (PI) for fluorescence-activated cell sorter (FACS) analysis with CellQuest software.

HT-29 = assay: Doxorubicin sensitization, MTS viability assay; assay type: cell-based, human; details: doxorubicin sensitivity, YMU1 vs vehicle
Method: as §1, §2, §3

HCT-116 p53−/− cells [1] = assay: Whole-cell dTTP extraction and quantification; assay type: cell-based, human
Method: FIG. 13. Effect of YMU1 on cellular dTTP level. HCT-116 p53−/− cells were transfected with or without TMPK siRNA for 2 days and treated with vehicle or YMU1. After 72 h, cells were harvested for Western blot analysis and dNTP level determination (mean±s.d., n=3; **, P<0.01 based on a two-tailed Student's t-test).
The investigators performed additional experiments to determine the effect of YMU1 treatment on cellular dTTP levels. YMU1 treatment in cells reduced dTTP pool about 30-40% after treatment with YMU1 for 3 days (FIG. 13). Transfection of these cells with siRNA to knock-down TMPK expression reduced the dTTP pool size in a similar magnitude.
10^6 cells were extracted with 1 ml of ice-cold 60% methanol at −20° C. overnight, followed by centrifugation for 30 min at 16,000×g. The supernatant was immersed at 100° C. in dry bath for 3 min and dried under vacuum. The dry residue was dissolved in 80 μl of nuclease free water and used for cellular dNTP measurement according to the method described by Ferraro et al. (Ferraro et al., 2010).

HCT-116 p53−/− cells [2] = assay: In vivo xenograft model, sensitization to low-dose doxorubicin; design: species or system Balb/c nude mice
Method: as §1, with “Both R2/R1 and TMPK are recruited to the site of doxorubicin-induced double-strand breaks, where dATP, dGTP, dCTP, dTTP and dUTP are site-specific synthesized. Inhibition of TMPK decreases dTTP formation at DNA damage sites, causing futile DNA repair due to dUTP incorporation.” left out
We also used an in vivo xenograft model to examine the effect of YMU1 as an adjuvant on sensitization to low-dose doxorubicin treatment. […] Two weeks after the last injections were administered, mice were sacrificed and tumor weights measured. […]
Female BALB/c AnN.Cg-Foxnl^nu/Crl Nurl mice 6-8 weeks of age (National Laboratory Animal Center, Taiwan) were used for the tumor xenograft model. […] The tumor size was measured every day after initiated drug treatment with an electronic caliper. […]
Monoclonal Ki 67 antibody (B56) was purchased from BD PharMingen. Paraffin-embedded tumor sections (5 μm) were incubated with the primary antibody, detected with a LSAB™ kit (DakoCytomation) according to the manufacturer's instructions and counterstained with hematoxylin.

[3] = YMU1 2 μM 72 h, doxorubicin exposure and recovery

CCOC(=O)N1CCN(C(=O)Cn2sc3nc(C)cc(C)c3c2=O)CC1 [compound 21, Ethyl 4-(2-(4,6-dimethyl-3-oxoisothiazolo[5,4-b]pyridin-2(3H)-yl)acetyl) piperazine-1-carboxylate]
Rad51 foci (MDA-MB231 cells; [3]): persistent Rad51 foci
XRCC1 foci formation (MDA-MB231 cells; [3]): increase in XRCC1 foci formation
numbers of DNA lesions formation (γH2AX focus staining) (MDA-MB231 cells; YMU1 2 μM 72 h pre-treatment, doxorubicin 0.1 μM): did not affect numbers of DNA lesions formation
cells still γH2AX-positive (MDA-MB231 cells; YMU1 2 μM 72 h pretreatment, recovery 48 h post-doxorubicin (0.1 μM) exposure): over 70%
Enhancement fold (MDA-MB468): 27.8 fold
Enhancement fold (HT-29): 3.4 fold
further reduction of dTTP pool in TMPK knockdown cells (HCT-116 p53−/− cells [1]; cells transfected with TMPK siRNA, then YMU1): did not cause a further reduction
reduction of dTTP pool (HCT-116 p53−/− cells [1]; treatment with YMU1 for 3 days): 30-40%
growth of tumors, YMU1 combined with doxorubicin (HCT-116 p53−/− cells [2]; YMU1 15 mg/kg thrice a week + doxorubicin 1.25 mg/kg twice a week, i.p., 4 weeks): much slower
tumor proliferation index (Ki 67 immunostaining), YMU1 combined with doxorubicin (HCT-116 p53−/− cells [2]; combinatory treatment of YMU1 and doxorubicin): clearly reduced
average tumor size relative to control mice, YMU1 combined with doxorubicin (HCT-116 p53−/− cells [2]; two weeks after the last injections, YMU1 15 mg/kg thrice a week + doxorubicin 1.25 mg/kg twice a week, i.p.): 25%
